Experimental data: patent publication US9878007B2, “Syndecan peptides and polypeptides as inhibitors of vascular endothelial growth factor receptor-2 (VEGFR2) and very late antigen-4 (VLA-4)” (Wisconsin Alumni Research Foundation, priority 2015, dated 2018)

Tests used:
[1] = system: HMEC-1 cells; assay: Transwell migration / invasion assay of HMEC-1 cells; format: cell-based; conditions: 16 hr
Method: (§1) FIGS. 8A-H. HPSE mediated the Sdc1-coupled VEGFR2 complex in endothelial cells induces angiogenesis. (FIG. 8A) Lysates from HPSE^low, HPSE^high and HMEC-1 cells are probed by immunoblotting for expression of HPSE. (FIG. 8B) HMEC-1 cells were seeded at equal density and grown in serum-free media for 24 hr in the absence or presence of 125 μg/ml of the HPSE inhibitor SST0001. After 24 hr, conditioned media were harvested, and the level of shed Sdc1 in the conditioned medium from each condition was determined by immunoblotting. (FIG. 8C) HMEC-1 cell lysate was incubated overnight with glutathione beads coated with GST or GST-S1ED. Capture of VLA-4 or VEGFR2 was detected by immunoblotting. (FIG. 8D) HMEC-1 cells were plated on IIICS for 3 hr and double stained for VLA-4 and Sdc1, VEGFR2 and Sdc1, or VLA-4 and VEGFR2. (FIG. 8E) HMEC-1 cells were treated with DMSO, VLA-4 blocking antibody P1H4, β1-integrin blocking antibody mAb13, 10 μg/ml MMP9 blocking antibody, 125 μg/ml HPSE inhibitor SST0001, Vandetanib, VEGFR2 blocking antibody, 30 μM S1ED^210-233 or 30 μM S1ED^214-240 and then plated on IIICS. Images were taken from random field with 200× magnification for counting attached and spread cells. (FIG. 8F) HMEC-1 cells were plated on IIICS in the presence of 10 μM of S1ED^210-236, S1ED^210-233, S1ED^215-240, and S1ED^214-240. Lysates were probed on immunoblots with antibodies against pY^1175 VEGFR2 and VEGFR2. (FIG. 8G) Transwell migration assays towards IIICS (for 16 hr) were performed for HMEC-1 cells in the presence of P1H4, SST0001, Anti-MMP9, Vandetanib, S1ED^210-236, S1ED^210-233, and S1ED^214-240. Images were taken from random field with 200× magnification for counting migrated cells. (FIG. 8H) A 96-well plate coated with 50 μl Matrigel containing 100 μg/ml IIICS per well was solidified at 37° C. for 2 hrs. […]
The bottom chambers of Transwell filter chambers (8 μm pores; Corning) were coated with 40 μg/ml of FN. […] Cells from at least five random fields were counted.

[2] = system: HMEC-1 cells; assay: In vitro tube formation assay of HMEC-1 cells on Matrigel; format: cell-based; conditions: 24 hrs, 10 μM peptides
Method: FIGS. 8A-H. HPSE mediated the Sdc1-coupled VEGFR2 complex in endothelial cells induces angiogenesis. (FIG. 8A) Lysates from HPSE^low, HPSE^high and HMEC-1 cells are probed by immunoblotting for expression of HPSE. (FIG. 8B) HMEC-1 cells were seeded at equal density and grown in serum-free media for 24 hr in the absence or presence of 125 μg/ml of the HPSE inhibitor SST0001. After 24 hr, conditioned media were harvested, and the level of shed Sdc1 in the conditioned medium from each condition was determined by immunoblotting. (FIG. 8C) HMEC-1 cell lysate was incubated overnight with glutathione beads coated with GST or GST-S1ED. Capture of VLA-4 or VEGFR2 was detected by immunoblotting. (FIG. 8D) HMEC-1 cells were plated on IIICS for 3 hr and double stained for VLA-4 and Sdc1, VEGFR2 and Sdc1, or VLA-4 and VEGFR2. (FIG. 8E) HMEC-1 cells were treated with DMSO, VLA-4 blocking antibody P1H4, β1-integrin blocking antibody mAb13, 10 μg/ml MMP9 blocking antibody, 125 μg/ml HPSE inhibitor SST0001, Vandetanib, VEGFR2 blocking antibody, 30 μM S1ED^210-233 or 30 μM S1ED^214-240 and then plated on IIICS. Images were taken from random field with 200× magnification for counting attached and spread cells. (FIG. 8F) HMEC-1 cells were plated on IIICS in the presence of 10 μM of S1ED^210-236, S1ED^210-233, S1ED^215-240, and S1ED^214-240. Lysates were probed on immunoblots with antibodies against pY^1175 VEGFR2 and VEGFR2. (FIG. 8G) Transwell migration assays towards IIICS (for 16 hr) were performed for HMEC-1 cells in the presence of P1H4, SST0001, Anti-MMP9, Vandetanib, S1ED^210-236, S1ED^210-233, and S1ED^214-240. Images were taken from random field with 200× magnification for counting migrated cells. (FIG. 8H) A 96-well plate coated with 50 μl Matrigel containing 100 μg/ml IIICS per well was solidified at 37° C. for 2 hrs. HMEC-1 cells (2.5×10^4 cells/well) were seeded into the plate and cultured in media containing VEGF, SST0001, 10 μM of S1ED^210-236, S1ED^210-233, S1ED^215-240, and S1ED^214-240 for 24 hrs. Enclosed capillary networks of tubes were taken from random field with 200× magnification.

[3] = target: T1, VLA-4 (Homo sapiens, UniProt P05556+P13612); assay: GST pull down assay: capture of VLA-4 by GST-S1ED; format: binding; conditions: HPSE^low cell lysates; peptide 30 M [sic]
T1 construct: the α4-integrin (VLA-4), which is expressed on myeloma cells; endogenous in cells; host or cells: CAG human myeloma cells (HPSE^low), whole-cell lysate
T1 sequence (P13612 34-1032): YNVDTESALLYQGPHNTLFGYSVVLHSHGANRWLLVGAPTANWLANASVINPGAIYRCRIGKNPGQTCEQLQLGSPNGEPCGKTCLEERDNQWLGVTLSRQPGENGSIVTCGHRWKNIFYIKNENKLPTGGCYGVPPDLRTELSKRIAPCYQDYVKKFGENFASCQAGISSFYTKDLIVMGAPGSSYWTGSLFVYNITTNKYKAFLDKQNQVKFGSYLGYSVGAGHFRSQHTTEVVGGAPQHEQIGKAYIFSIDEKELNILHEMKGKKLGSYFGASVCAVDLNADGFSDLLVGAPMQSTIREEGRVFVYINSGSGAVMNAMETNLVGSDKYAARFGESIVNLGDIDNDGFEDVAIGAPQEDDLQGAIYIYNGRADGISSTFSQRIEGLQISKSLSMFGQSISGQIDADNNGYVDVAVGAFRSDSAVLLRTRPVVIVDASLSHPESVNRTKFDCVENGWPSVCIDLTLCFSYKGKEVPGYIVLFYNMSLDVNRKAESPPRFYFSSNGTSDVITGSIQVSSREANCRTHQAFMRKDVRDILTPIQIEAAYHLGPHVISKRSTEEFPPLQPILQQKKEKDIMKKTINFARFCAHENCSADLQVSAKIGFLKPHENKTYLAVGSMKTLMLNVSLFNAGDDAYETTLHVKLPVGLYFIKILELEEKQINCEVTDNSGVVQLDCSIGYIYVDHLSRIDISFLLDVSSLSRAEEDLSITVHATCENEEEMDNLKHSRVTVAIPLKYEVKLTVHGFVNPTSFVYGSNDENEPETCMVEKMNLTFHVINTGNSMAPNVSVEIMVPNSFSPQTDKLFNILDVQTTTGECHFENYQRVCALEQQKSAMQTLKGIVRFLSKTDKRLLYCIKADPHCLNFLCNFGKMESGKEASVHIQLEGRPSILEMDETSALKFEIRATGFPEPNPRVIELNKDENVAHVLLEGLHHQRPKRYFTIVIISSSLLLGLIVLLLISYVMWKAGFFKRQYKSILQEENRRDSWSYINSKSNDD
T1 sequence (P05556 21-798): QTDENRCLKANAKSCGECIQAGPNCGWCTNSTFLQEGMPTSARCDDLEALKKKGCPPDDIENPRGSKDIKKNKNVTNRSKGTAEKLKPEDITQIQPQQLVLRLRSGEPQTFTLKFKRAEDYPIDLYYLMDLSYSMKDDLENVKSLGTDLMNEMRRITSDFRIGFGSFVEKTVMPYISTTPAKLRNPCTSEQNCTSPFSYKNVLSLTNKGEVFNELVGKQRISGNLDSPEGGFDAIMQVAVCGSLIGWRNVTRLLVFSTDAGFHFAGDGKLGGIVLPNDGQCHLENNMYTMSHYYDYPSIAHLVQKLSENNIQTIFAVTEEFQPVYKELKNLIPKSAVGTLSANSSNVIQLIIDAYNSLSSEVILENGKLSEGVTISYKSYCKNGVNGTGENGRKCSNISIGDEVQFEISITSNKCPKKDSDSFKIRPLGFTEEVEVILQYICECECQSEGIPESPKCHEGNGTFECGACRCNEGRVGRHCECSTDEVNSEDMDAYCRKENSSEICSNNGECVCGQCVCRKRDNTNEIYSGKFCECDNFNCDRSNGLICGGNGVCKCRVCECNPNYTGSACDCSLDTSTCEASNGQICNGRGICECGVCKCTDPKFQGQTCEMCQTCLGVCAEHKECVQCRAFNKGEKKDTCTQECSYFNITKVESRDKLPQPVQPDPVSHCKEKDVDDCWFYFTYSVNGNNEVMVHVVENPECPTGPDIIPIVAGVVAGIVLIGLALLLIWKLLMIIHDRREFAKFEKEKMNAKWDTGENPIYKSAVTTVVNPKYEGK
Method: (§2) FIGS. 6A-G. Peptides derived from the active site in Sdc1 activate or inhibit adhesion and invasion. (FIG. 6A) Transwell migration assays towards FN (for 16 hrs) were performed for HPSE low or high cells in the presence of 0, 0.3, 3, and 30 μM of S1ED^210-240. Cells migrating to the bottom side of the filter were counted from five random images for each treatment. (FIG. 6B) The sequence of S1ED210-240 is shown (SEQ ID NO: 3), as well as […] truncation mutants of the peptide (SEQ ID NOs: 5, 2, 4 and 7). Amino acids shown in red appear necessary for the spreading and invasive activity. (FIG. 6C) Images of HPSE^low and HPSE^high cells plated on FN for 2 hr. (FIG. 6D) HPSE^low cells were treated with 0, 0.3, 3, 10 and 30 μM of S1ED^210-236, S1ED^210-233, or S1ED^214-240, plated on FN for 2 hr, fixed and stained with fluorescent phalloidin. Cells from five random images were quantified for cell attachment and cell spreading. (FIG. 6E) HPSE^high cells were treated with 0, 3, 10, and 30 μM of S1ED^210-236, S1ED^210-233, and S1ED^214-240, plated on FN for 2 hr, then fixed, imaged and quantified as in FIG. 6D. (FIG. 6F) Transwell migration assays towards FN (for 16 hr) were performed for HPSE^low or HPSE^high cells in the presence of 30 μM of S1ED^210-236, S1ED^210-233, S1ED^214-240 and Vandetanib. (FIG. 6G) HPSE^low cell lysates were incubated overnight with glutathione beads coated with GST or GST-S1ED in the absence or presence of 30 μM of S1ED^210-236, S1ED^210-233, and S1ED^214-240. Capture of VLA-4 or VEGFR2 was detected by immunoblotting. Sequences in FIG. 6B are 210-240 (SEQ ID NO: 3), 210-236 (SEQ ID NO: 2), 210-233 (SEQ ID NO: 4), 214-240 (SEQ ID NO: 5) and 214-236 (SEQ ID NO: 7).
(§3) CAG cells were washed with CMF-PBS and then lysed for 20 min on ice in lysis buffer. Cell debris was removed by centrifugation at 13000 rpm for 20 min at 4° C. Whole cell lysates were then incubated at 4° C. overnight with either 3 μM GST or 3 μM GST-S1ED in the absence or presence of 1 μM, 3 μM, and 10 μM S1ED^210-240 peptide. GST or GST-S1ED was captured by addition of glutathione Sepharose and the beads were washed with ice-cold lysis buffer and CMF-PBS, prior to addition of SDS-PAGE sample buffer and analyszed by electrophoresis and western blotting as described previously.

[4] = system: CAG myeloma cells; assay: Cell spreading / attachment assay of CAG myeloma cells on FN or VCAM-1; format: cell-based, human; conditions: on FN, 2 hr
[5] = target: T2, VEGFR2 (Homo sapiens, UniProt P35968); assay: GST pull down assay: capture of VEGFR2 by GST-S1ED; format: binding; conditions: HPSE^low cell lysates; peptide 30 M [sic]
T2 construct: endogenous in cells; host or cells: CAG human myeloma cells (HPSE^low = empty vector; HPSE^high = human HPSE cDNA)
T2 sequence (P35968 20-1356): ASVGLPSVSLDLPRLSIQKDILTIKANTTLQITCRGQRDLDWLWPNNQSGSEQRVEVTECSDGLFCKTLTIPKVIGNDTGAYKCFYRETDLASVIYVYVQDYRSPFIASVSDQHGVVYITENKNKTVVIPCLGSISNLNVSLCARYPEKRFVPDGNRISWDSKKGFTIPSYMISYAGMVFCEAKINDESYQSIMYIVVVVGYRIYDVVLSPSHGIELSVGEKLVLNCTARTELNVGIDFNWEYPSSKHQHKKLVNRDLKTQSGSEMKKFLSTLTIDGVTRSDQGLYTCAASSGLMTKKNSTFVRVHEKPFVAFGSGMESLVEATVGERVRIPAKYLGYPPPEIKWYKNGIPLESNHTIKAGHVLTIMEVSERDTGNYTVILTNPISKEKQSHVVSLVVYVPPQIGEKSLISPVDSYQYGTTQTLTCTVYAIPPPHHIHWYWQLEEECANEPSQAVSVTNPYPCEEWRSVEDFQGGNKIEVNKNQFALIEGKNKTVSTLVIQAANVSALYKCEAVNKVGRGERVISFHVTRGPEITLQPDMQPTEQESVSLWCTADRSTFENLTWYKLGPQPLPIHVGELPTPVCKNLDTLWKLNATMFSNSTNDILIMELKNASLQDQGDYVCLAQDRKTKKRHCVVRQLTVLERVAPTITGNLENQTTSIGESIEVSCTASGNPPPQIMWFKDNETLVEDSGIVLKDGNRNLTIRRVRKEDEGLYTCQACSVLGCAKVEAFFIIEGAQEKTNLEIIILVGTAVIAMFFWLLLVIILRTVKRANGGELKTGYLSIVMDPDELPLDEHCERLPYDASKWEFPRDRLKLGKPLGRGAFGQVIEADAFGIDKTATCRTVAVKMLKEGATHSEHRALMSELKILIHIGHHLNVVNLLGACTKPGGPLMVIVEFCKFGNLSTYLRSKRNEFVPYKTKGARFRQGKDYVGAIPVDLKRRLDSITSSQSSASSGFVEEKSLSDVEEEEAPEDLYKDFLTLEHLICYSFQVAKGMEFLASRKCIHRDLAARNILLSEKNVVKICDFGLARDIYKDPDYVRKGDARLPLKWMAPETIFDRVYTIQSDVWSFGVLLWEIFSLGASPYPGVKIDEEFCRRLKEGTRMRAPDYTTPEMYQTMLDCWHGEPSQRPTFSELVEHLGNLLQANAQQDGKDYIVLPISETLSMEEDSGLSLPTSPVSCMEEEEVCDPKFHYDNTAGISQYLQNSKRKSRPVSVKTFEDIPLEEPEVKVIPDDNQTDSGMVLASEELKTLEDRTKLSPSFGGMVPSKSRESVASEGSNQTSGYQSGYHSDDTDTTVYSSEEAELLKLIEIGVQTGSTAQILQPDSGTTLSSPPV
Method: as §2, §3

[6] = system: HMEC-1 cells; assay: Attachment and spreading of HMEC-1 cells on IIICS; format: cell-based; conditions: plated on IIICS; 30 μM peptides, 125 μg/ml SST0001, 10 μg/ml MMP9 blocking antibody
Method: as §1, with “S1ED^214-240.” for “S1ED^214-240. Lysates were probed on immunoblots with antibodies against pY^1175 VEGFR2 and VEGFR2. (FIG. 8G) Transwell migration assays towards IIICS (for 16 hr) were performed for HMEC-1 cells in the presence of P1H4, SST0001, Anti-MMP9, Vandetanib, S1ED^210-236, S1ED^210-233, and S1ED^214-240. Images were taken from random field with 200× magnification for counting migrated cells. (FIG. 8H) A 96-well plate coated with 50 μl Matrigel containing 100 μg/ml IIICS per well was solidified at 37° C. for 2 hrs.”

[7] = system: CAG myeloma cells; assay: Cell spreading / attachment assay of CAG myeloma cells on FN or VCAM-1; format: cell-based, human; conditions: on VCAM-1; 0.3 μM peptide
Method: (§4) Nitrocellulose-coated slides were coated for 2 hr at 37° C. with 40 μg/ml FN (kindly provided by Dr. Donna Peters, University of Wisconsin-Madison) or 5 μg/ml recombinant VCAM-1/Fc chimera (R&D Systems) in calcium and magnesium-free PBS (CMF-PBS; 135 mM NaCl, 2.7 mM KCl, 10.2 mM Na2HPO4-7H20 and 1.75 mM KH2PO4, pH7.4). Slides were blocked for 1 hr at 37° C. with RPMI 1640 containing 1% heat-denatured BSA (plating medium). Cells in plating medium were allowed to attach and spread for 2.5 hr at 37° C. Slides were fixed in 4% EM grade paraformaldehyde (Electron Microscopy Sciences) in CMF-PBS and labeled for 30 min in 0.13 μM rhodamine phalloidin (Invitrogen) in CMF-PBS. Coverslips were mounted in non-fluorescing mounting medium (Immumount; Thermo Shandon) and allowed to dry. All images were acquired with a Nikon Microphot FX microscope using a 20× objective (Nikon; Ex 541-551, DM 580, Barrier 590), Photometric CoolSnap ES camera, and version 7.7.3.0 Metamorph© Imaging software (Molecular Devices). All images represent results from triplicate wells and at least three independent experiments.

[8] = system: P3x63Ag8 mouse myeloma cells; assay: Invasion of P3x63Ag8 myeloma cells through FN-coated filters; format: cell-based; conditions: 16 hr
Method: (§5) FIG. 7A-B. S1ED^214-236, specific for VEGFR2 coupling to VLA-4, blocks myeloma cell invasion but not adhesion. (FIG. 7A) P3x63Ag8 mouse myeloma cells are plating on the VLA-4 ligand FN in the presence or absence of 30 uM S1ED^210-233 (SEQ ID No: 4) or S1ED^214-236 (SEQ ID No: 7) for 2.5 hr. (FIG. 7B) P3x63Ag8 myeloma cells are plated on FN-coated filters in the presence of HPSE inhibitor OGT2115, VLA-4 blocking antibody P1H4, VEGFR2 inhibitor Vandetanib or S1ED^210-233 or S1ED^214-236 and allowed to migrate through the filter for 16 hr. Small black dots are the pores in the filter.
The bottom chambers of Transwell filter chambers (8 μm pores; Corning) were coated with 40 μg/ml of FN. Cells (5×10^5 in 0.2 ml plating medium) were placed in the upper chamber and incubated for 16 hr at 37° C. in the CO2 incubator. After incubation, cells in the upper chamber were removed and cells on the bottom side of the filter were fixed in 4% paraformaldehyde (PFA) and stained with 0.1% Crystal Violet before imaging. Cells from at least five random fields were counted.

[9] = system: P3x63Ag8 mouse myeloma cells; assay: Adhesion of P3x63Ag8 myeloma cells to FN; format: cell-based; conditions: 30 uM peptide, 2.5 hr
Method: as §5
as §4, with “All images were acquired with a Nikon Microphot FX microscope using a 20× objective (Nikon; Ex 541-551, DM 580, Barrier 590), Photometric CoolSnap ES camera, and version 7.7.3.0 Metamorph© Imaging software (Molecular Devices). All images represent results from triplicate wells and at least three independent experiments.” left out

Substance | invasion of HMEC-1 cells [1] | tube formation by HMEC-1 cells [2] | competition for capture of VLA-4 by GST-S1ED [3] | HPSE^low cell spreading ([4]; 0, 0.3, 3, 10 and 30 μM peptide) | HPSE^high cell adhesion ([4]; 0, 3, 10 and 30 μM peptide) | HPSE^high cell spreading ([4]; 0, 3, 10 and 30 μM peptide) | HPSE^low cell adhesion ([4]; high concentrations (30 μM)) | competition for capture of VEGFR2 by GST-S1ED [5] | VLA-4 dependent spreading of HMEC-1 cells [6] | induction of HPSE^low cell spreading by S1ED peptides [7] | invasion / migration of P3X cells through FN-coated filters [8] | adhesion of P3X cells to FN [9]
S1ED^214-240: syndecan-1 ectodomain peptide, residues 214-240 (SEQ ID NO: 5) (ETSGENTAVVAVEPDRRNQSPVDQGAT) | all block invasion | blocks tube formation | only competes for capture of VEGFR2 | does not cause cell spreading | has no effect on cell adhesion | blocks the spreading of HPSE^high cells | does not cause cell spreading or block adhesion | only competes for capture of VEGFR2 | prevented | do not | – | –
S1ED^214-236: syndecan-1 ectodomain peptide, residues 214-236 (SEQ ID NO: 7) (ETSGENTAVVAVEPDRRNQSPVD) | – | – | – | – | – | – | – | – | – | – | blocked by either peptide | without effect
